Measured values reported in patent US20260184702A1, “SYNTHESIS, PHARMACOLOGY AND USE OF NEW WATER-SOLUBLE AND SELECTIVE FMS-LIKE TYROSINE KINASE3 (FLT3) INHIBITORS” (Universität Regensburg, priority 2022, published 2026).
Values after ≈ are worked out from the molar mass of the structure shown.

Key:
[1] = test system: subcutaneous MV4-11 CDX model; settings: female, NOD/SCID, mouse, in vivo, 5 days
[2] = test system: subcutaneous MV4-11 CDX model; test: In vivo efficacy study in subcutaneous MV4-11 CDX model in NOD/SCID mice; settings: 50 mg/kg po daily 5 days
[3] = Solubility test by UV-Vis spectroscopy of saturated solutions; type: physicochemical; settings: for Solubility Ethanol [g/L] / Solubility Water [g/L]: saturated solution; for Solubility Water [g/L]: ultrapure water
In short: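 Solubility was measured by UV-Vis spectroscopy on an Agilent Cary 60 over 800-200 nm, using a scan rate of 300.0 nm/min, a 0.50 nm data interval, 0.10 s averaging time and a 10 mm cuvette. Filtered saturated supernatants were diluted into water:ethanol, read at the long-wave absorbance maximum against a calibration curve of at least 6 concentrations, in triplicate.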

[4] = test system: MOLM-13 (acute myeloid leukemia); settings: Sellmer et al. 2020; cited from earlier work
[5] = test system: MONO-MAC-6 (acute monocytic leukemia); settings: Sellmer et al. 2020; cited from earlier work
[6] = test system: MONO-MAC-1 (acute monocytic leukemia); settings: Sellmer et al. 2020; cited from earlier work
[7] = test system: EOL-1 (acute myeloid eosinophilic leukemia); settings: Sellmer et al. 2020; cited from earlier work

CC(C)(C)c1cc(NC(=O)Nc2ccc(-c3cn4c(n3)sc3cc(OCCN5CCOCC5)ccc34)cc2)no1 [Quizartinib, reference compound]
study day after which mice had to be sacrificed [1]: 6 days
first death(s) (day of study) [2]: 600000 s
number of living subjects, day of study 5 ([2]; 5 mice): 5
number of living subjects, day of study 6 ([2]; 5 mice): 5
number of living subjects, day of study 8 ([2]; 5 mice): 3
number of living subjects, day of study 13 ([2]; 5 mice): 3
number of living subjects, day of study 26 ([2]; 5 mice): 3
number of living subjects, day of study 36 ([2]; 5 mice): 3
solubility ([3]; DMSO, organic solvent or mixture, solvent DMSO, read-out: Solubility DMSO): 33.2 mg/mL (≈ 59.2 mM)
Solubility Ethanol [g/L] [3]: no or at most very poor solubility
Solubility Ethanol [g/L] ([3]; listed as AC220): Practical
Solubility Water [g/L] [3]: no or at most very poor solubility
Solubility Water [g/L] ([3]; listed as AC220): Practical
IC50 [4]: 0.007 µM
IC50 [5]: 0.004 µM
IC50 [6]: 0.006 µM
IC50 [7]: 0.0001 µM
